ChEMBL document CHEMBL4725294, “Centrally Active Multitarget Anti-Alzheimer Agents Derived from the Antioxidant Lead CR-6” (J Med Chem, 2020)
Activity calls are given as the source filed them. No cut-off for these calls is given here.

Experiments:
[1] = Drug metabolism in mouse liver microsomes assessed as N-[8-[(6-chloro-1,2,3,4-tetrahydroacridin-9-yl)amino]octyl]-5-(2,5-dihydroxy-4-methoxy-phenyl)-3-hydroxy-3-methyl-pentanamide formation at 5 uM measured up to 60 mins by UPLC-MS/MS analysis; assay type: ADME, Microsome; conditions: 1 h
Mus musculus [2] = assay: Improvement in memory impairment in APP/PS1 double mutant-transgenic C57BL6/J mouse model assessed as […] at 10 mg/kg/day, ip for 4 weeks followed by compound washout by maze two-object recognition test; assay type: functional, organism-based
[3] = Stability in human plasma assessed as parent compound remaining at 10 uM measured after 180 mins by UPLC-MS/MS analysis; assay type: ADME, cell-free; conditions: read-out: Stabilty
[4] = Stability in rat plasma assessed as parent compound remaining at 10 uM measured after 60 mins by UPLC-MS/MS analysis; assay type: ADME, cell-free; conditions: read-out: Stabilty
[5] = Drug metabolism in rat liver microsomes assessed as 6-chloro-1,2,3,4-tetrahydroacridin-9-amine formation at 5 uM measured up to 60 mins by UPLC-MS/MS analysis; assay type: ADME, Microsome; conditions: 1 h
Mus musculus [6] = assay: Antialzheimer activity in APP/PS1 double mutant-transgenic C57BL6/J mouse model assessed as reduction in oxidized protein level at 10 mg/kg/day, ip for 4 weeks followed by compound washout and measured after 24 hrs by Western blot analysis; assay type: functional, organism-based
[7] = Stability in mouse plasma assessed as parent compound remaining at 10 uM measured after 60 mins by UPLC-MS/MS analysis; assay type: ADME, cell-free; conditions: read-out: Stabilty
[8] = Intrinsic clearance in human liver microsomes assessed per mg protein at 5 uM by UPLC-MS/MS analysis; assay type: ADME, Microsome; conditions: read-out: CLH
[9] = Drug metabolism in rat liver microsomes assessed as N-[8-[(6-chloro-1,2,3,4-tetrahydroacridin-9-yl)amino]octyl]-3-hydroxy-5-(4-methoxy-3,6-dioxo-cyclohexa-1,4-dien-1-yl)-3-methyl-pentanamide formation at 5 uM measured up to 60 mins by UPLC-MS/MS analysis; assay type: ADME, Microsome; conditions: 1 h
[10] = Drug metabolism in human liver microsomes assessed as 6-chloro-1,2,3,4-tetrahydroacridin-9-amine formation at 5 uM measured up to 60 mins by UPLC-MS/MS analysis; assay type: ADME, Microsome; conditions: 1 h
[11] = Stability in human liver microsomes assessed as parent compound remaining at 5 uM measured up to 60 mins by UPLC-MS/MS analysis; assay type: ADME, Microsome; conditions: read-out: Stabilty
Mus musculus [12] = assay: Antialzheimer activity in APP/PS1 double mutant-transgenic C57BL6/J mouse model assessed as increase in Adam10 gene expression at 10 mg/kg/day, ip for 4 weeks followed by compound washout and measured after 24 hrs by qPCR analysis; assay type: functional, organism-based
Mus musculus [13] = assay: Antialzheimer activity in APP/PS1 double mutant-transgenic C57BL6/J mouse model assessed as reduction in soluble amyloid beta 40 level in cortex at 10 mg/kg/day, ip for 4 weeks followed by compound washout and measured after 24 hrs by ELISA; assay type: functional, organism-based
[14] = Half life in human liver microsomes at 5 uM by UPLC-MS/MS analysis; assay type: ADME, Microsome
[15] = Stability in rat plasma assessed as parent compound remaining at 10 uM measured immediately by UPLC-MS/MS analysis; assay type: ADME, cell-free; conditions: read-out: Stabilty
[16] = Half life in mouse liver microsomes at 5 uM by UPLC-MS/MS analysis; assay type: ADME, Microsome
[17] = Drug metabolism in mouse liver microsomes assessed as N-[8-[(6-chloro-1,2,3,4-tetrahydroacridin-9-yl)amino]octyl]-2-(8-methoxy-2-methyl-6,9-dioxo-1-oxaspiro[4.5]dec-7-en-2-yl)acetamide formation at 5 uM measured up to 60 mins by UPLC-MS/MS analysis; assay type: ADME, Microsome; conditions: 1 h
[18] = Half life in rat liver microsomes at 5 uM by UPLC-MS/MS analysis; assay type: ADME, Microsome
[19] = Stability in human plasma assessed as parent compound remaining at 10 uM measured after 360 mins by UPLC-MS/MS analysis; assay type: ADME, cell-free; conditions: read-out: Stabilty
in vitro = conditions: PAMPA
Description: Permeability of compound in PBS/EtOH buffer (7:3) PAMPA-BBB assay

[20] = Stability in human plasma assessed as parent compound remaining at 10 uM measured immediately by UPLC-MS/MS analysis; assay type: ADME, cell-free; conditions: read-out: Stabilty
Mus musculus [21] = assay: Antialzheimer activity in APP/PS1 double mutant-transgenic C57BL6/J mouse model assessed as reduction in amyloid beta burden in cortex at 10 mg/kg/day, ip for 4 weeks followed by compound washout and measured after 24 hrs by hematoxylin staining based microscopic analysis; assay type: functional, organism-based
[22] = Drug metabolism in human liver microsomes assessed as N-[8-[(6-chloro-1,2,3,4-tetrahydroacridin-9-yl)amino]octyl]-3-hydroxy-5-(4-methoxy-3,6-dioxo-cyclohexa-1,4-dien-1-yl)-3-methyl-pentanamide formation at 5 uM measured up to 60 mins by UPLC-MS/MS analysis; assay type: ADME, Microsome; conditions: 1 h
Cholinesterase = Cholinesterase (Homo sapiens, UniProt P06276)
Description: Inhibition of recombinant human BChE using butyrylthiocholine iodide as substrate preincubated for 15 mins followed by substrate addition by Ellman's method

[23] = Acute toxicity in C57BL6/J mouse assessed as reduction in locomotor activity at 15 mg/kg, ip measured after 5 mins; assay type: organism-based; conditions: in vivo
Mus musculus [24] = assay: Antialzheimer activity in APP/PS1 double mutant-transgenic C57BL6/J mouse model assessed as reduction in Bace1 expression at 10 mg/kg/day, ip for 4 weeks followed by compound washout and measured after 24 hrs by Western blot analysis; assay type: functional, organism-based
[25] = Drug metabolism in human liver microsomes assessed as N-[8-[(6-chloro-1,2,3,4-tetrahydroacridin-9-yl)amino]octyl]-2-(8-methoxy-2-methyl-6,9-dioxo-1-oxaspiro[4.5]dec-7-en-2-yl)acetamide formation at 5 uM measured up to 60 mins by UPLC-MS/MS analysis; assay type: ADME, Microsome; conditions: 1 h
[26] = Acute toxicity in C57BL6/J mouse assessed as ptosis at 15 mg/kg, ip measured after 5 mins; assay type: organism-based; conditions: in vivo
[27] = Acute toxicity in C57BL6/J mouse at 15 mg/kg, ip measured after 3 hrs; assay type: organism-based; conditions: in vivo
[28] = Drug metabolism in mouse liver microsomes assessed as N-[8-[(6-chloro-1,2,3,4-tetrahydroacridin-9-yl)amino]octyl]-3-hydroxy-5-(4-methoxy-3,6-dioxo-cyclohexa-1,4-dien-1-yl)-3-methyl-pentanamide formation at 5 uM measured up to 60 mins by UPLC-MS/MS analysis; assay type: ADME, Microsome; conditions: 1 h
[29] = Drug metabolism in human liver microsomes assessed as N-[8-[(6-chloro-1,2,3,4-tetrahydroacridin-9-yl)amino]octyl]-5-(2,5-dihydroxy-4-methoxy-phenyl)-3-hydroxy-3-methyl-pentanamide formation at 5 uM measured up to 60 mins by UPLC-MS/MS analysis; assay type: ADME, Microsome; conditions: 1 h
Acetylcholinesterase = Acetylcholinesterase (Homo sapiens, UniProt P22303)
Description: Inhibition of recombinant human AChE expressed in HEK293 cells using acetylthiocholine iodide as substrate preincubated for 15 mins followed by substrate addition by Ellman's method

[30] = Intrinsic clearance in mouse liver microsomes assessed per mg protein at 5 uM by UPLC-MS/MS analysis; assay type: ADME, Microsome; conditions: read-out: CLH
[31] = Stability in mouse plasma assessed as parent compound remaining at 10 uM measured after 360 mins by UPLC-MS/MS analysis; assay type: ADME, cell-free; conditions: read-out: Stabilty
Mus musculus [32] = assay: Antialzheimer activity in APP/PS1 double mutant-transgenic C57BL6/J mouse model assessed as increase in Hmox1 gene expression at 10 mg/kg/day, ip for 4 weeks followed by compound washout and measured after 24 hrs by qPCR analysis; assay type: functional, organism-based

Cholinesterase, sequence (P06276 whole entry): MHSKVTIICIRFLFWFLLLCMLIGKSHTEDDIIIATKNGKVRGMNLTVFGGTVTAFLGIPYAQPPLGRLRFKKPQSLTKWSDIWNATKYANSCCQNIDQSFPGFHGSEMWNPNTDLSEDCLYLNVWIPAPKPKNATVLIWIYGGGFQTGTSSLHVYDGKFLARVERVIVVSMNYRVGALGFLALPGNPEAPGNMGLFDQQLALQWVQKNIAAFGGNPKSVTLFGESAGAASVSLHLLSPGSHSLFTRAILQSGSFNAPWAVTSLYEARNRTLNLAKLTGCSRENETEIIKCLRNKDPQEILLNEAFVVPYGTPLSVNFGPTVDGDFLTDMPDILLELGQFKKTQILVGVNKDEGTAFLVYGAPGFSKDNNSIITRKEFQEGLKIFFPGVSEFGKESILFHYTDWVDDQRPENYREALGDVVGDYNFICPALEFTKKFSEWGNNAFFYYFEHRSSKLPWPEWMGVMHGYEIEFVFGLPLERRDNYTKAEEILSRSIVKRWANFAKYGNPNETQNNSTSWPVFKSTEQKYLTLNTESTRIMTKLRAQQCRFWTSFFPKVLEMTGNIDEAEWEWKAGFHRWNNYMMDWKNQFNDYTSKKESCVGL
Acetylcholinesterase, sequence (P22303 whole entry): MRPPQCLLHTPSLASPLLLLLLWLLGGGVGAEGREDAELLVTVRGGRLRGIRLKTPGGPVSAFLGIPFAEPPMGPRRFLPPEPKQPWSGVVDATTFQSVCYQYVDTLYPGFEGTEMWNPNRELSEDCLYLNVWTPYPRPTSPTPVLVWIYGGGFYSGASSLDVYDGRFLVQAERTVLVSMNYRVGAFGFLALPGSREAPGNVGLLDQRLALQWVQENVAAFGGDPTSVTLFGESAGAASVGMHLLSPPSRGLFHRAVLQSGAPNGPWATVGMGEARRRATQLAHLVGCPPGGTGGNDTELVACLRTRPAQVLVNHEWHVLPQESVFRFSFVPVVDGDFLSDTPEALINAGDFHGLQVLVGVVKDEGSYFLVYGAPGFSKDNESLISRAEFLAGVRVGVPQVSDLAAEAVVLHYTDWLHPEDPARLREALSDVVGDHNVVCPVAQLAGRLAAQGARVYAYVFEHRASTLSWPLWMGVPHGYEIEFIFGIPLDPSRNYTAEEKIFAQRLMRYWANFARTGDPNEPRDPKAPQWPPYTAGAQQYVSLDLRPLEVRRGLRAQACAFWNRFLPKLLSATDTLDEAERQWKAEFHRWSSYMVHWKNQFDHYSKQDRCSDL

In the case of `COc1cc2c(cc1O)CCC(C)(CC(=O)NCCCCCCCCNc1c3c(nc4cc(Cl)ccc14)CCCC3)O2` (stereo not given), the Drug metabolism [1] is reported as “Metabolite_Detected”, the Activity (Mus musculus [2]) is reported as “inactive” and the remaining at 3 h, 10 µM [3] is reported as 100%. The remaining at 1 h, 10 µM [4] was 100%, the Drug metabolism [5] was “Metabolite_Detected” and the Activity (Mus musculus [6]) was “inactive”. For the same compound, the remaining at 1 h, 10 µM [7] was 100%, the microsomal CLint at 5 µM [8] was 55.2 µL/min/mg and the Drug metabolism [9] was “Metabolite_Detected”. The Drug metabolism [10] was “Metabolite_Detected”, the remaining at 1 h, 5 µM [11] was 3.6% and the Activity (Mus musculus [12]) was “inactive”. For the same compound, the Activity (Mus musculus [13]) was “inactive”, the half-life at 5 µM [14] was 12.6 min and the remaining at 0 min, 10 µM [15] was 100%. The half-life at 5 µM [16] was 50.5 min, the Drug metabolism [17] was “Metabolite_Detected” and the half-life at 5 µM [18] was 42.4 min. The remaining at 6 h, 10 µM [19] was 100%, the Papp (in vitro) was 9.6 ×10⁻⁶ cm/s and the remaining at 0 min, 10 µM [20] was 100%. For the same compound, the Activity (Mus musculus [21]) was “inactive”, the Drug metabolism [22] was “Metabolite_Detected” and the IC50 (Cholinesterase) was 170 nM. The Activity [23] was “Toxic”, the Activity (Mus musculus [24]) was “inactive” and the Drug metabolism [25] was “Metabolite_Detected”. For the same compound, the Activity [26] was “Toxic”, the Activity [27] was “Non-Toxic” and the Drug metabolism [28] was “Metabolite_Detected”. For the same compound, the Drug metabolism [29] was “Metabolite_Detected”, the IC50 (Acetylcholinesterase) was 3.69 nM and the microsomal CLint at 5 µM [30] was 13.7 µL/min/mg. For the same compound, the remaining at 6 h, 10 µM [31] was 100% and the Activity (Mus musculus [32]) was “Active”.
